This note sets out measurements from ChEMBL document CHEMBL4334467, “Synthesis and SAR Study of Carbamoyl Pyridone Bicycle Derivatives as Potent Inhibitors of Influenza Cap-dependent Endonuclease” (J Med Chem, 2019).

Calls of active or inactive are those of the source. No cut-off for these calls is given here. Where only a bound is given, the exact number is not on record here.

The target in series [1] is Polymerase acidic protein (Influenza A virus (A/Puerto Rico/8/1934(H1N1)), UniProt P03433). Put plainly: Inhibition of Influenza A virus (A/WSN/1933(H1N1)) CEN using m7G[5']-ppp-[5'] [m2'-O]GAA UAU(-Cy3) GCAUCACUAGUAAGCUUUGCUCUA(-BHQ2)-3' as substrate measured after 60 mins by fluorescence assay.
In series [2] the test system is Influenza A virus. In kind it is functional, organism-based. The following applies: A/WSN/1933(H1N1), MDCK, 72 h.
In series [3] the test system is Influenza A virus. The series is classed as functional, organism-based. The following applies: MDCK.
Series [4] is described as follows: Metabolic stability in Crj:CD(SD) rat liver microsomes assessed as compound remaining at 2 uM incubated for 30 mins by LC/MS/MS analysis. Conditions: read-out: Stability. The series is classed as ADME, Microsome. In general terms: Liver microsomes are a subcellular fraction often used to study metabolism.
Series [5] is described as follows: In vivo total clearance in Sprague-Dawley rat at 0.5 mg/kg, iv administered as single dose after 2 to 360 mins by LC/MS/MS analysis. In kind it is ADME, organism-based.
A short description of series [6]: Protein binding in rat serum assessed as unbound fraction after 24 hrs by LC-MS based equilibrium dialysis analysis. In kind it is ADME, cell-free. For orientation: In equilibrium dialysis only unbound substance equilibrates across the membrane.
For series [7], the system named is Influenza A virus. The series is classed as functional, organism-based. Conditions: A/Puerto Rico/8/1934(H1N1), MDCK, 72 h.
In series [8] the test system is Influenza A virus H3N2. In kind it is functional, organism-based. Conditions: A/Victoria/3/1975(H3N2), MDCK, 72 h.
Series [9] relates to Influenza A virus H3N2. The series is classed as functional, organism-based. The following applies: A/Hong Kong/8/68, MDCK, 72 h.
Series [10] relates to Influenza B virus. Put plainly: Antiviral activity against Influenza B virus (B/Hong Kong/05/72) infected in MDCK cells assessed as reduction in virus-induced cytopathic effect incubated for 72 hrs by WST assay. The series is classed as functional, organism-based. The following applies: B/Hong Kong/05/1972, MDCK. (In general: Damage to the host cells serves as the signal in cytopathic effect assays.)

The test system of series [11] is Influenza B virus. The experiment in a line: Antiviral activity against Influenza B virus (B/Maryland/1/59) infected in MDCK cells assessed as reduction in virus-induced cytopathic effect incubated for 72 hrs by WST assay. In kind it is functional, organism-based.
Series [12] deals with Polymerase acidic protein (Influenza A virus (A/Puerto Rico/8/1934(H1N1)), UniProt P03433). Put plainly: Inhibition of Influenza A virus CEN.
Series [13] has as its system Influenza A virus. The experiment in a line: microbe, parasite or virus in culture.
Description: Antiviral activity against Influenza A virus
The test system of series [14] is Influenza B virus. Put plainly: Antiviral activity against Influenza B virus (B/Maryland/1/59) infected in iv dosed BALB/C mouse administered once daily. In kind it is functional.
Series [15] concerns Influenza B virus. Put plainly: Antiviral activity against Influenza B virus (B/Maryland/1/59) infected in BALB/C mouse assessed as mouse survival at 10 mg/kg, iv administered once daily relative to control. The series is classed as functional.
Series [16] concerns Influenza B virus. Put plainly: Antiviral activity against Influenza B virus (B/Maryland/1/59) infected in BALB/C mouse assessed as increase in mouse survival at 0.08 to 2 mg/kg, iv administered once daily. The series is classed as functional, organism-based.
Series [17] is described as follows: Cytotoxicity against MDCK cells after 3 days by WST-8 assay. The series is classed as cell-based, Canis lupus familiaris. Conditions: dog.

For the compound `COCCN1C[C@H](c2ccccc2)n2cc(C(=O)O)c(=O)c(O)c2C1=O`, the half-inhibitory concentration (IC50) in series [1] amounted to 27.8 µM. The compound also registered an EC50 in [2] of more than 50 µM.
Turning to `CCOC(=O)c1cn2c(c(O)c1=O)C(=O)N(CCOC)C[C@@H]2C(c1ccccc1)c1ccccc1`, the midpoint of inhibition in series [1], the IC50, lay at 0.298 µM. The same compound gave an EC50 in [2] of 2.53 µM.
The compound `O=C1N/C(=N\N=C2\C(=O)Nc3ccccc32)S/C1=C1\C(=O)Nc2ccccc21` displayed an EC50 in series [3] of 0.8 µM.
Consider `O=C1c2c(O)c(=O)ccn2N(C(c2ccccc2)c2ccccc2)CN1Cc1ccco1`, for which the IC50 in series [1] amounted to 0.588 µM. This compound came in with an EC50 in series [2] of 0.478 µM. For the same compound, the remaining at 0.5 h, 2 µM in [4] was determined as 50.6%. Further, in series [5], the clearance came to 42.6 mL/min/kg. For the same compound, the fraction unbound at 24 h in [6] stood at 0.0217.
In turn, `COCCN1C[C@H](C(c2ccccc2)c2ccccc2)n2cc(OC)c(=O)c(O)c2C1=O` registered an IC50 in [1] of 0.11 µM. The same compound had an EC50 in [2] of 1.68 µM.
As to `O=C(O)/C(O)=C/C(=O)C1(Cc2ccc(Cl)cc2)CCN(Cc2ccccc2)CC1`, the response in series [2] was half-maximal at 38.3 µM (EC50).
Take `CC(C)N1C[C@H](C(c2ccccc2)c2ccccc2)n2ccc(=O)c(O)c2C1=O`: the IC50 in [1] is 0.239 µM. In addition, the concentration giving a half-maximal response (EC50) came out at 0.0575 µM in [2]; 0.194 µM in [7]; 0.488 µM in [8]; 0.232 µM in [9]; 0.1 µM in series [10]; 0.177 µM in series [11]. Moreover, the remaining at 0.5 h, 2 µM in [4] turned out to be 78.7%. The compound further showed a clearance in [5] of 25.3 mL/min/kg. Also, in [6], the fraction unbound at 24 h came to 0.182.
For `O=C(NCCc1ccc(O)c(O)c1)c1cc2cc(O)c(O)cc2[nH]1`, the IC50 in series [12] stood at 0.94 µM. For the same compound, a half-maximal effect in series [13] (EC50) was put at 16 µM.
Take `CC(C)N1CN(C(c2ccccc2)c2ccccc2)n2ccc(=O)c(O)c2C1=O`: the midpoint of inhibition in series [1], the IC50, lay at 0.286 µM. Besides, the EC50 in series [2] amounted to 0.0816 µM; in series [7] it was 0.183 µM; in [8], 0.829 µM; in [9], 0.301 µM; in series [10], 0.124 µM; in series [11], 0.176 µM. The remaining at 0.5 h, 2 µM in [4] stood at 86%. In [5], this compound yielded a clearance of 10.9 mL/min/kg. Besides, the fraction unbound at 24 h in [6] amounted to 0.0377. The Activity result in series [14] is “Dose-dependent effect”. The compound also gave a median effective dose (ED50) in series [14] of 0.89 mg/kg/day. Besides, in series [15], the survival at 10 mg/kg turned out to be 100%. In addition, the result in series [16] was inactive. Also, the half-maximal cytotoxic concentration (CC50) at 72 h in series [17] was more than 25 µM.
The compound `CN1CN(C(c2ccccc2)c2ccccc2)n2ccc(=O)c(O)c2C1=O` displayed an IC50 in series [1] of 0.164 µM. The compound further displayed an EC50 in series [2] of 0.0816 µM. Further, the remaining at 0.5 h, 2 µM in series [4] stood at 92.1%. In addition, the clearance in series [5] was 18.8 mL/min/kg. Further, the fraction unbound at 24 h in [6] was determined as 0.07.
In [1], `CNC(=O)c1cn2c(c(O)c1=O)C(=O)N(CCOC)C[C@@H]2C(c1ccccc1)c1ccccc1` showed a half-maximal inhibitory concentration (IC50) of 1.59 µM. The EC50 in series [2] was 7.11 µM.
Turning to `COCCN1C[C@H](CC(C)C)n2cc(C(=O)O)c(=O)c(O)c2C1=O`, it took 9.31 µM to reach half-maximal inhibition in series [1] (IC50).
Regarding `O=C(O)c1cn(CC2(n3ccc4cccnc43)CCCC2)cc(O)c1=O`, the half-inhibitory concentration (IC50) in series [12] stood at 0.005 µM. This compound displayed an EC50 in series [13] of 0.201 µM.
On to `COCCN1C[C@H](Cc2ccccc2)n2cc(C(=O)O)c(=O)c(O)c2C1=O`, for which the IC50 in [1] was 0.241 µM. Also, the EC50 in series [2] is more than 50 µM.
`O=c1[nH]c(-c2ccc(F)cc2)c(-c2ccc(-c3nnn[nH]3)cc2)cc1O`: in series [13], the EC50 stood at 11.4 µM.
`CN1C[C@H](C(c2ccccc2)c2ccccc2)n2ccc(=O)c(O)c2C1=O` came in with a half-inhibitory concentration (IC50) in series [1] of 0.0804 µM. The EC50 in [2] amounted to 0.144 µM. Besides, in series [4], the remaining at 0.5 h, 2 µM came out at 79.9%. Moreover, the clearance in series [5] is 31.6 mL/min/kg. Also, the fraction unbound at 24 h in series [6] was determined as 0.285.
In [2], `COCCN1C[C@H](C(c2ccccc2)c2ccccc2)n2cc(Cl)c(=O)c(O)c2C1=O` returned a half-maximal effective concentration (EC50) of 0.541 µM.
As to `COCCN1CCn2cc(C(=O)O)c(=O)c(O)c2C1=O`, in series [1], the IC50 came out at 68.6 µM.
In turn, `COCCN1CN(C(c2ccccc2)c2ccccc2)n2cc(C(=O)O)c(=O)c(O)c2C1=O` returned an IC50 in series [1] of 0.116 µM. This compound also displayed a concentration giving a half-maximal response (EC50) in series [2] of 1.47 µM.
Turning to `O=c1oc2ccc(-c3ccc(F)cc3)cc2cc1O`, in [12], it took 0.5 µM to reach half-maximal inhibition (IC50).
On to `COCCN1C[C@H](CCc2ccccc2)n2cc(C(=O)O)c(=O)c(O)c2C1=O`, for which, in [1], the IC50 was 1.35 µM. That is a single-digit micromolar value.
The same measure, in the same setting: in the case of `COCCN1C[C@H](C(C)C)n2cc(C(=O)O)c(=O)c(O)c2C1=O` it was 2.99 µM.
In [1], `COCCN1CN(Cc2ccc(F)cc2)n2cc(C(=O)O)c(=O)c(O)c2C1=O` came in with an IC50 of 0.419 µM. This compound showed an EC50 in series [2] of more than 25 µM.
With `COCCN1CN(C(c2ccccc2)c2ccccc2)n2ccc(=O)c(O)c2C1=O`, the IC50 in [1] was determined as 0.103 µM. Besides, the EC50 in [2] is 0.0752 µM. Moreover, in series [4], the remaining at 0.5 h, 2 µM worked out at 83.4%. In [5], the clearance came out at 47.4 mL/min/kg. In addition, in series [6], the fraction unbound at 24 h is 0.129.
In the case of `COCCN1C[C@H](C(c2ccccc2)c2ccccc2)n2ccc(=O)c(O)c2C1=O`, half-maximal inhibition in series [1] (IC50) was put at 0.115 µM. For the same compound, in [2], the 50% effective concentration (EC50) is 0.134 µM. Further, the remaining at 0.5 h, 2 µM in [4] worked out at 79.7%. The clearance in [5] was 42.2 mL/min/kg. The fraction unbound at 24 h in series [6] came to 0.297.
For the compound `COCCN1C[C@H](C(c2ccccc2)c2ccccc2)n2cc(N)c(=O)c(O)c2C1=O`, it took 0.358 µM to reach half-maximal inhibition in series [1] (IC50). In series [2], this compound yielded an EC50 of 3.86 µM.
Turning to `COCCN1C[C@@H](Cc2ccccc2)n2cc(C(=O)O)c(=O)c(O)c2C1=O`, it took 27.4 µM to reach half-maximal inhibition in series [1] (IC50). In addition, the EC50 in series [2] is more than 50 µM.
`COCCN1C[C@H](C(c2ccccc2)c2ccccc2)n2cc(C(=O)O)c(=O)c(O)c2C1=O` showed an IC50 in series [1] of 0.0478 µM. Besides, the EC50 in series [2] stood at 0.293 µM.
`COCCN1C[C@H](C(c2ccccc2)c2ccccc2)n2cc(C)c(=O)c(O)c2C1=O` yielded an IC50 in [1] of 0.281 µM. The compound also returned an EC50 in series [2] of 2.47 µM.

In general, IC50 refers to the concentration that inhibits the measured activity by half. Lower therefore signals greater potency. Broadly, the EC50 is the midpoint of the concentration-response curve. The clearance is the volume of plasma or blood freed of the substance per unit of time. A high value points to efficient removal. As a reminder, the fraction unbound is the share of the substance not bound to proteins or other matrix. Broadly, the ED50 is the midpoint of the dose-response relation. A low value points to an effect at a small dose. For orientation: CC50 means the concentration at which the toxic effect on the cells reaches its halfway point.
